Data set [1] deals with Staphylococcus aureus. The experiment in a line: Antibacterial activity against Staphylococcus aureus assessed as reduction in bacterial cell growth at 0.03 to 64 ug/ml incubated for 16 to 18 hrs by CLSI broth dilution method. It is filed as functional.
The test system of data set [2] is Acinetobacter baumannii. Put plainly: Antibacterial activity against multidrug-resistant Acinetobacter baumannii assessed as reduction in bacterial cell growth incubated for 24 hrs by broth dilution method. It is filed as functional.
A short description of data set [3]: Cytotoxicity against human HepG2 cells assessed as reduction in cell viability at 0 to 50 uM incubated for 48 hrs by MTT assay. The settings on record: read-out: LD50. It is filed as cell-based.
Data set [4] has as its system Acinetobacter baumannii. Put plainly: Antibacterial activity against Acinetobacter baumannii 1646 infected in mouse model of peritonitis assessed as increase in survival rate at 2 mg/kg, ip dosed at 1 hr post infection (reference value: 66%). It is filed as functional. As to conditions: Acinetobacter baumannii, 1646, ip.
In the next data set the test system is Escherichia coli. The experiment in a line: Antibacterial activity against Escherichia coli assessed as diameter of zone inhibition at 100 ppm by disc diffusion method. In kind it is functional. The settings on record: read-out: DIZ.
For data set [5], the system named is Staphylococcus aureus. The experiment in a line: Antibacterial activity against Staphylococcus aureus assessed as diameter of zone inhibition at 100 ppm by disc diffusion method. In kind it is functional. As to conditions: read-out: DIZ.
For another data set, the system named is MCF7. The experiment in a line: Cytotoxicity against human MCF7 cells assessed as reduction in cell viability at 0.1 to 100 uM by MTT assay. It is filed as functional, cell-based.
The test system of data set [6] is Staphylococcus aureus. The experiment in a line: Antibacterial activity against methicillin-resistant Staphylococcus aureus assessed as reduction in bacterial cell growth at 0.5 to 512 ug/ml incubated for 24 hrs by CLSI broth microdilution method. In kind it is functional.
In data set [7] the test system is Staphylococcus aureus. The experiment in a line: Antibacterial activity against Staphylococcus aureus. In kind it is functional.
Data set [8] concerns Staphylococcus aureus. The experiment in a line: Antibacterial activity against Staphylococcus aureus assessed as inhibition zone. It is filed as functional.
For data set [9], the system named is Staphylococcus aureus. The experiment in a line: Antibacterial activity against Staphylococcus aureus NCIM 2901 assessed as reduction in bacterial cell growth at 0.03 to 64 ug/ml incubated for 16 to 18 hrs by CLSI broth microdilution method. It is filed as functional.
A further data set concerns Bacillus subtilis. The experiment in a line: Antibacterial activity against Bacillus subtilis MTCC 441 assessed as reduction in bacterial cell growth at 0.03 to 64 ug/ml incubated for 16 to 18 hrs by CLSI broth microdilution method. It is filed as functional.
A further data set deals with Pseudomonas aeruginosa. The experiment in a line: Antibacterial activity against Pseudomonas aeruginosa NCIM 2036 assessed as reduction in bacterial cell growth at 0.03 to 64 ug/ml incubated for 16 to 18 hrs by CLSI broth microdilution method. In kind it is functional.

Structures are written as SMILES. In brackets after ≈: the same amount, converted by molar mass. Where only a bound is given, the exact number is not on record here.

As to `CN(C)/C=C/c1nc2ccccc2c(=O)n1-c1cccc(C(=O)NC2CC2)c1`, the minimal inhibitory concentration (MIC) with Staphylococcus aureus [1] was more than 64 µg/mL.
Take `CNc1nc(NCc2ccccc2)nc2cc(C)ccc12`: in the data set on Acinetobacter baumannii [2], the MIC amounted to 0.5 µM (≈ 0.139 µg/mL). Besides, in data set [3], the CC50 at 48 h was 23 µM. Also, the survival at 2 mg/kg with Acinetobacter baumannii [4] turned out to be 90%.
As for `N#Cc1ccc(/C=C/c2nc3ccccc3c(=O)n2-c2ccc(O)cc2)cc1`, the MIC in the data set on Staphylococcus aureus [1] was 8 µg/mL (≈ 21.9 µM).
For the compound `N#Cc1ccc(/C=C/c2nc3cccc(Cl)c3c(=O)n2-c2cccc(C(=O)O)c2)cc1`, in the data set with Staphylococcus aureus [1], the MIC was 8 µg/mL (≈ 18.7 µM).
As for `N#Cc1ccc(/C=C/c2nc3ccccc3c(=O)n2-c2cccc(C(=O)NC3CC3)c2)cc1`, the MIC in the data set with Staphylococcus aureus [1] was 0.5 µg/mL (≈ 1.16 µM).
As to `Cc1nc2ccc(I)cc2c(=O)n1/N=C/c1cc(Br)cc(Br)c1O`, the zone of inhibition at 100 ppm in the data set with Escherichia coli was determined as 16 mm; in the data set on Staphylococcus aureus [5], 14 mm.
For `N#Cc1ccc(/C=C/c2nc3ccccc3c(=O)n2-c2cccc(C(=O)N3CCCC3)c2)cc1`, the MIC with Staphylococcus aureus [1] came to 4 µg/mL (≈ 8.96 µM).
Consider `Cc1nc2ccc(I)cc2c(=O)n1/N=C/c1cc(I)cc(I)c1O`, for which the values for the zone of inhibition at 100 ppm in the data set with Escherichia coli and in the data set with Staphylococcus aureus [5] were 16 mm and 14 mm, respectively.
Consider `CNc1nc(NCc2ccccc2)nc2cc(Cl)ccc12`, for which the MIC in the data set with Acinetobacter baumannii [2] was found to be 0.5 µM (≈ 0.149 µg/mL). Further, in data set [3], the CC50 at 48 h was 23 µM. The survival at 2 mg/kg in the data set on Acinetobacter baumannii [4] turned out to be 90%.
With `CNc1nc(NCc2ccccc2)nc2ccc(Br)cc12`, the MIC in the data set with Acinetobacter baumannii [2] came to 0.5 µM (≈ 0.172 µg/mL). In [3], the CC50 at 48 h came out at 23 µM. The survival at 2 mg/kg with Acinetobacter baumannii [4] amounted to 90%.
As to `CNc1nc(NCc2ccccc2)nc2cc(Br)ccc12`, the MIC in the data set on Acinetobacter baumannii [2] was 0.5 µM (≈ 0.172 µg/mL). For the same compound, the CC50 at 48 h in data set [3] was determined as 23 µM. The survival at 2 mg/kg with Acinetobacter baumannii [4] was determined as 90%.
`Cn1cc[n+](C(Cn2cnc3ccccc3c2=O)c2cc3cc(Br)ccc3o2)c1` (stereo not given): in the data set on MCF7, the IC50 is 0.57 to 1 µM.
For the compound `N#Cc1ccc(/C=C/c2nc3ccccc3c(=O)n2-c2cccc(C(=O)N3CCOCC3)c2)cc1`, the MIC in the data set with Staphylococcus aureus [1] worked out at 8 µg/mL (≈ 17.3 µM).
As for `Cc1nc2ccc(I)cc2c(=O)n1/N=C/c1cc(Cl)cc(Cl)c1O`, the zone of inhibition at 100 ppm with Escherichia coli came out at 16 mm; in the data set with Staphylococcus aureus [5], 14 mm.
As to `C#CCOc1cccc(-n2c(/C=C/c3ccc(C#N)cc3)nc3ccccc3c2=O)c1`, the minimal inhibitory concentration (MIC) in the data set on Staphylococcus aureus [1] amounted to 0.25 µg/mL (≈ 0.62 µM).
For the compound `N#Cc1ccc(/C=C/c2nc3ccccc3c(=O)n2-c2cccc(C(=O)N3CCCCC3)c2)cc1`, the minimal inhibitory concentration (MIC) in the data set with Staphylococcus aureus [1] was 4 µg/mL (≈ 8.69 µM).
Consider `Cc1nc2ccccc2c(=O)n1-c1cccc(C(=O)NC2CC2)c1`, for which the MIC in the data set with Staphylococcus aureus [1] was more than 64 µg/mL.
Turning to `Cc1cccc2c(=O)n(-c3cccc(C(=O)O)c3)c(/C=C/c3ccc(C#N)cc3)nc12`, the MIC in the data set on Staphylococcus aureus [1] was determined as 2 µg/mL (≈ 4.91 µM).
For `C#Cc1cccc(-n2c(/C=C/c3ccc(C#N)cc3)nc3ccccc3c2=O)c1`, the MIC in the data set on Staphylococcus aureus [1] turned out to be 0.5 µg/mL (≈ 1.34 µM).
As for `CNc1nc(NCc2ccccc2)nc2ccc(C)cc12`, the MIC in the data set with Acinetobacter baumannii [2] was 0.5 µM (≈ 0.139 µg/mL). In addition, the CC50 at 48 h in data set [3] was 23 µM. In addition, in the data set with Acinetobacter baumannii [4], the survival at 2 mg/kg was 90%.
Regarding `O=c1c2ccc(F)cc2ncn1CC(O)Cn1cncn1` (stereo not given), the MIC with Staphylococcus aureus [6] was 8 µg/mL (≈ 27.7 µM).
In the case of `CNc1nc(NCc2ccccc2)nc2ccc(Cl)cc12`, the MIC in the data set with Acinetobacter baumannii [2] stood at 0.5 µM (≈ 0.149 µg/mL). Moreover, the CC50 at 48 h in data set [3] turned out to be 23 µM. Also, the survival at 2 mg/kg in the data set on Acinetobacter baumannii [4] was 90%.
For `COc1cc(/C=N/n2c(C)nc3ccc(I)cc3c2=O)cc(I)c1O`, the zone of inhibition at 100 ppm in the data set with Escherichia coli worked out at 16 mm; with Staphylococcus aureus [5] it was 14 mm.
As for `C#CCOc1cccc(-n2c(/C=C/c3ccc(Cl)cc3)nc3ccccc3c2=O)c1`, the MIC with Staphylococcus aureus [1] worked out at 32 µg/mL (≈ 77.5 µM).
For the compound `COc1cc(/C=N/n2c(C)nc3ccc(Br)cc3c2=O)cc(Br)c1O`, the zone of inhibition at 100 ppm came to 16 mm in the data set on Escherichia coli and 14 mm in the data set with Staphylococcus aureus [5].
Consider `Cn1cc[n+](C(Cn2cnc3ccccc3c2=O)c2cc3ccccc3o2)c1` (stereo not given), for which the IC50 in the data set on MCF7 fell in the range of 0.57 to 1 µM.
Take `Cc1ccc2c(c1)c(=O)n(-c1ccccc1)c1n[nH]c(=S)n21`: the minimum inhibitory concentration (MIC) against Staphylococcus aureus [7] was found to be 32 µg/mL (≈ 104 µM). Besides, the “inhibition zone (IZ)” value with Staphylococcus aureus [8] was determined as 17 mm.
As to `Cc1ccccc1NC(=O)Nn1c(-c2ccccc2)nc2ccccc2c1=O`, the MIC in the data set with Staphylococcus aureus [9], with Bacillus subtilis and in the data set with Pseudomonas aeruginosa was 1.56 µg/mL (≈ 4.21 µM) throughout.
Turning to `CN(C)[C@@H]1C(O)=C(C(N)=O)C(=O)[C@@]2(O)C(O)=C3C(=O)c4c(O)cccc4[C@@](C)(O)[C@H]3C[C@@H]12` [TETRACYCLINE], the zone of inhibition at 100 ppm in the data set with Escherichia coli was 6 to 27 mm; with Staphylococcus aureus [5], 12 to 24 mm.

Source of the values: ChEMBL document CHEMBL4385594, “4(3H)-Quinazolinone derivatives: Promising antibacterial drug leads” (Eur J Med Chem, 2019).
